We go through nine compounds from patent publication US8778617B2, “Method for determining the binding constant of high affinity compounds” (Hoffmann-La Roche Inc., priority 2010, dated 2014).

Data set [1] is described as follows: Equilibrium dialysis, binding to beta-hydroxypropyl-cyclodextrine as sink compound. The note with it: membrane cut off 1 kDa; for fb(%) excipient binding level: Warfarin 0.01 mM to 0.4 mM, UV; for Average Binding [%] to beta-hydroxypropyl-cyclodextrine: beta-hydroxypropyl-cyclodextrine 10% (m/V), test compound 0.02 mM-0.06 mM, DMSO 6% (V/V). The protocol: A reusable 96-well Micro-Equilibrium dialysis Device 96 chamber was used for the following experiments. The chamber system consists of 10 Teflon™ bars, wherein semipermeable membranes (see 1.2 Membranes) were placed between two Teflon™ bars each to form two compartment of each well. 2) The protein chamber (chamber 2) is filled with buffer and the other excipients to the final volume of approximately 100-150 ul. […] 5) The chamber system was shaken for 1 hour, then incubated over night (approximately 12 hours). Long duration shaking should be avoided due to the risk of higher evaporation caused by the generated heat.
Background: In equilibrium dialysis only unbound substance equilibrates across the membrane.

A short description of data set [2]: Equilibrium dialysis, excipient binding to gamma-cyclodextrin. Conditions: γ-Cyclodextrin 2.5% (m/V); membrane cut off 1 kDa; Warfarin 0.01 mM to 0.4 mM; UV. The protocol: (§1) A reusable 96-well Micro-Equilibrium dialysis Device 96 chamber was used for the following experiments. The chamber system consists of 10 Teflon™ bars, wherein semipermeable membranes (see 1.2 Membranes) were placed between two Teflon™ bars each to form two compartment of each well.
(§2) 2) The protein chamber (chamber 2) is filled with buffer and the other excipients to the final volume of approximately 100-150 ul. It is important that on each side the volume is exactly the same.
(§3) 5) The chamber system was shaken for 1 hour, then incubated over night (approximately 12 hours). Long duration shaking should be avoided due to the risk of higher evaporation caused by the generated heat.
(§4) 6) After reaching the equilibrium, a sample from the sink chamber (reference, binding study II with sink compound and HSA), or from the protein chamber (reference, binding study I with sink compound alone) was transferred to a half-area UV-plate and analyzed spectrometrically (spectra max, 190 Plate Reader; 250-500 nm) or it was analysed by HPLC.

Data set [3] in a line: Equilibrium dialysis, binding to combination of PVP25 and beta-hydroxypropyl-cyclodextrin as sink compound. Conditions: PVP 25 4% (m/V) + β-Hydroxypropyl-cyclodextrin 4% (m/V); membrane cut off 1 kDa; test compound 0.02 mM to 0.6 mM. The protocol: as §1, §2
(§5) with PVP and PVP in combination with cyclodextrines as sink compound in chamber the volume was 100 μl. (PVP 15 4% (m/V), PVP 25 4% (m/V), PVP 25 4% (m/V)+β-Hydroxypropyl-cyclodextrin 4% (m/V))
as §3, §4

Data set [4] relates to plasma protein. The note with it: conventional methods, literature values; cited from earlier work.
In data set [5] the target is human serum albumin (HSA) (Homo sapiens, UniProt P02768). The data set is described as follows: Assay with PVP 25 (sink compound) and human serum albumin, new approach. The format is in vitro ADME. The note with it: pH 7.4, PVP 25 4.0% (m/V) as sink compound, HSA 60 mM, membrane MWCO 3.5 kDa, test compound 0.02 mM to 0.6 mM, HPLC; for fraction bound to HSA: read-out: fu (%) newApproach (binding level to HSA). The protocol: as §2
End concentration of HSA: 60 mM
as §3, §4
The distribution coefficient and the binding constant can be calculated with binding studies. The binding of drugs to HSA is a reversible process which can be described by the following equilibrium [Du]+[HSA]·[D·HSA]
The binding constant KHSA can be converted to the fraction unbound fu with the following formula derived from the law of mass:
The binding constant to HSA (KHSA) (2) can be calculated from the combination of partition coefficients to PVP (DCPVP) (3) and to HSA in the presence of PVP (DCHSA′) (3). KHSA=DCPVP·DCHSA′ (2)
Vtotal is total volume in the dialysis chamber (200 μl) and VHSA and VPVP are the volumes of HSA and PVP 25, which can be calculated from the density and the weighted sample
Analytics was carried out on an HPLC-system (Agilent 1100). The separations were performed on a RP column (Chromolith flash, RP18e, 4.6×25 mm). Samples were eluted with gradient of water with 0.05% formic acid (A) and Acetonitril (B).

The nature of data set [6]: Equilibrium dialysis, binding to PVP 15. Conditions: PVP 15 40 g/l; drugs 0.02-0.6 mM. The protocol: as §1, §2, §5, §3, §4
(§6) Concentrations of the drugs: 0.02-0.6 mM
(§7) Amounts of PVP 15 and PVP25: each 40 g/l

A short description of data set [7]: Equilibrium dialysis, binding to PVP 25. Conditions: PVP25 40 g/l; drugs 0.02-0.6 mM. The protocol: as §1, §2, §5, §3, §4, §6, §7
In data set [8] the test system is plasma protein. The data set is described as follows: Protein binding determined with conventional methods (literature values / inhouse). In kind it is in vitro ADME. Conditions: read-out: fu (%) Literature (binding level). The source says: The determined binding levels of the test compound in example 6 (“new approach”) were compared with the values determined with conventional methods (literature values).

human serum albumin (HSA), sequence (P02768 25-609): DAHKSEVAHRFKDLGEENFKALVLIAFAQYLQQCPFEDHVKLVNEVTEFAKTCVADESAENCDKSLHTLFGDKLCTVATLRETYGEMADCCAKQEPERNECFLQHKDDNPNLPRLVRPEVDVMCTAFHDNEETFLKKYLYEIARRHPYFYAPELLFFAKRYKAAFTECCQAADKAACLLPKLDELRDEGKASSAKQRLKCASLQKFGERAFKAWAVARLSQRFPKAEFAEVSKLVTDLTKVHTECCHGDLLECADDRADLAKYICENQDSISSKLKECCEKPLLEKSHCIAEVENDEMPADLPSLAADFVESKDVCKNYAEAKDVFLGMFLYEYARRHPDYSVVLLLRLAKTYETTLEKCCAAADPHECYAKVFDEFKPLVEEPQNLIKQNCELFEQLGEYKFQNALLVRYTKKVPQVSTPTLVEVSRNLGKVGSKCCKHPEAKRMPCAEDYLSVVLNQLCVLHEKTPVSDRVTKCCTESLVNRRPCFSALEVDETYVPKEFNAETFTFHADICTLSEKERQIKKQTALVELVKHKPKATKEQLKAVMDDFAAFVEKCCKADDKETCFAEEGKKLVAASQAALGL

For `CC(=O)CC(c1ccccc1)c1c(O)c2ccccc2oc1=O` (racemic) [Warfarin, (RS)-4-hydroxy-3-(3-oxo-1-phenylbutyl)-2H-chromen-2-one], the “fb(%) excipient binding level” value in data set [1] (β-Hydroxypropyl-cyclodextrin 1% (m/V)) is 6.8%; in data set [1] (β-Hydroxypropyl-cyclodextrin 10% (m/V)), 27.6%; in data set [2] it was 6.0%; in data set [3], 27.9%.
As to `NC(=O)N1c2ccccc2C=Cc2ccccc21` [Carbamazepin], in data set [1], the “Average Binding [%] to beta-hydroxypropyl-cyclodextrine” value came to 31.3%.
Turning to `CO/N=C(\C(=O)N[C@@H]1C(=O)N2C(C(=O)O)=C(CSc3nc(=O)c(=O)[nH]n3C)CS[C@H]12)c1csc(N)n1` [Ceftriaxone], the “Average Binding [%] to beta-hydroxypropyl-cyclodextrine” value in data set [1] was 14.2%.
For `CN(C)CCCN1c2ccccc2Sc2ccc(Cl)cc21` [Chlorpromazine, 3-(2-chloro-10H-phenothiazin-10-yl)-N,N-dimethyl-propan-1-amine], the “fu (%) Literature (binding level)” value in the data set on plasma protein [4] is 97.80%. For the same compound, the fraction bound to HSA in data set [5] came out at 0.994.
`O=C(O)Cc1ccccc1Nc1c(Cl)cccc1Cl` [Diclofenac, 2-(2-(2,6-dichlorophenylamino)phenyl)acetic acid]: in data set [1], the “Average Binding [%] to beta-hydroxypropyl-cyclodextrine” value is on record as 23.1%. In data set [6], the “Average binding [%] to PVP15” value was 21.7%. Also, in data set [7], the “Average binding [%] to PVP25” value came to 46.4%.
Turning to `NS(=O)(=O)c1cc(C(=O)O)c(NCc2ccco2)cc1Cl` [Furosemid, 4-chloro-2-(furan-2-ylmethylamino)-5-sulfamoylbenzoic acid], the “Average binding [%] to PVP15” value in data set [6] is on record as 37.0%. Moreover, the “Average binding [%] to PVP25” value in data set [7] came to 49.4%.
For the compound `COc1ccc(Cl)cc1C(=O)NCCc1ccc(S(=O)(=O)NC(=O)NC2CCCCC2)cc1` [Glibenclamid, 5-chloro-N-(4-[N-(cyclohexylcarbamoyl)sulfamoyl]phenethyl)-2-methoxybenzamide], in the data set on plasma protein [8], the fraction bound is 0.997. Moreover, the fraction bound to HSA in data set [5] worked out at 1.
For the compound `CN1/C(=C(/O)Nc2ccccn2)C(=O)c2ccccc2S1(=O)=O` [Piroxicame, (8E)-8-[hydroxy-(pyridin-2-ylamino)methylidene]-9-methyl-10,10-dioxo-10λ6-thia-9-azabicyclo[4.4.0]deca-1,3,5-trien-7-one], the “fu (%) Literature (binding level)” value with plasma protein [4] is 99.0%. Also, the fraction bound in data set [5] was determined as 99.6%.
As for `C=C[C@H]1C[N@@]2CC[C@H]1C[C@H]2[C@H](O)c1ccnc2ccc(OC)cc12` [Quinine], the “Average Binding [%] to beta-hydroxypropyl-cyclodextrine” value in data set [1] is recorded as 21.6%.
